Test results: patent US20170065327A1, “METHODS AND MATERIALS FOR TREATING ELEVATED SYMPATHETIC NERVE ACTIVITY CONDITIONS” (Mayo Foundation for Medical Education and Research, priority 2014, published 2017)

How the values were obtained:
[1] = system: healthy humans; assay: Brief escalating infusion of trimethaphan camsylate with non-invasive beat-to-beat arterial pressure measurement to distinguish high and low sympathetic activity individuals; assay type: in vivo, human; settings: infusion 1-4 mg/minute for 5-10 minutes, 24 healthy humans
Text: (§1) FIG. 1 is a graph plotting muscle sympathetic nerve activity (MSNA; bursts/min) as measured using a microneurography technique for 24 humans. The dose indicates the amount of trimethaphan in mg/min it took to abolish the sympathetic nerve bursts. The MSNA bursts per minute is the amount of sympathetic bursts that occurred at baseline, prior to drug infusion.
(§2) FIG. 2 is a graph plotting the same dose of trimethaphan in mg/min compared to the difference in mean arterial pressure (MAP) between baseline and at the final trimethaphan dose.
Both normal human subjects and patients with diseases such as resistant hypertension can have very wide ranges of baseline sympathetic activity. The following was developed to distinguish those individuals with high levels of baseline sympathetic activity from individuals with lower levels of baseline sympathetic activity. Trimethaphan camsylate, a ganglionic blocking drug, was administered (e.g., by infusion) at 1-4 mg/minute for 5-10 minutes to 24 healthy humans, while non-invasive beat-to-beat measurements of arterial pressure were made. […] The relationship between the fall in blood pressure and baseline sympathetic activity in a group of about 20-30 healthy women ranging in age from their early 20's to their later 60's was determined (FIGS. 1 and 2). Similar data were obtained using healthy men. […]

[2] = system: young and older postmenopausal women; assay: Autonomic (ganglionic) blockade with trimethaphan camsylate in young and older postmenopausal women: muscle sympathetic nerve activity, arterial pressure, total peripheral resistance; assay type: in vivo, human; settings: during trimethaphan
Text: as §1, §2
The effect of ganglionic blockade on arterial blood pressure and how this relates to baseline muscle sympathetic nerve activity in 12 young (25±1 years) and 12 older postmenopausal (61±2 years) women were examined. The women were studied before and during autonomic blockade using trimethaphan camsylate. At baseline, muscle sympathetic nerve activity burst frequency and burst incidence were higher in the older women (33±3 versus 15±1 bursts/min; 57±5 versus 25±2 bursts/100 heartbeats, respectively; P<0.05). Muscle sympathetic nerve activity bursts were abolished by trimethaphan within minutes (e.g., between about 6 and about 35 minutes). […] Baseline muscle sympathetic nerve activity was associated with the decrease in mean arterial pressure during trimethaphan (r=−0.74; P<0.05). See, also, Barnes et al., Hypertension, 63:303-308 (2014).

[3] = older postmenopausal women (61±2 years, n=12), P<0.01 versus young

`O=C1N(Cc2ccccc2)C2C[S+]3CCCC3C2N1Cc1ccccc1` (stereo not drawn) [trimethaphan, trimethaphan camsylate] was tested, and the “fall in blood pressure during brief escalating doses” value [1] was “directly related to baseline sympathetic activity”, the “Muscle sympathetic nerve activity bursts” value ([2]; 12 young and 12 older postmenopausal women) was “abolished” and the “decrease in mean arterial pressure” value [2, 3] was −29±2 mm Hg. For the same compound, the “decrease in total peripheral resistance” value [2, 3] was −10±1 mm Hg/L per minute, the “decrease in mean arterial pressure” value ([2]; young women (25±1 years, n=12)) was −9±2 mm Hg and the “decrease in total peripheral resistance” value ([2]; young women (25±1 years, n=12)) was −5±1 mm Hg/L per minute.
